For series [1], the system named is Bacillus subtilis No. 10707. In words: Minimum inhibitory concentration, agar dilution method at pH 8.0. Format: cell-based. The source says:
(§1) In the following Table 4, the antibacterial spectra of Fortimicin KF and Fortimicin KG against various microorganisms are set forth.
(§2) (Minimum Inhibitory Concentration, γ/ml measured by
(§3) agar dilution method at pH 8.0)

A further series has as its system Escherichia coli ATCC 26. Described as above. The format is cell-based. The settings on record: ATCC26.
Excerpt: as §1, §2, §3

Series [2] has as its system Klebsiella pneumoniae ATCC 10031. The description is as above. Format: cell-based. The settings on record: ATCC10031.
Excerpt: as §1, §2, §3

In series [3] the test system is Proteus vulgaris ATCC 6897. Described as above. Format: cell-based. To be noted: ATCC6897.
Excerpt: as §1, §2, §3

The subject of series [4] is Salmonella typhosa ATCC 9992. The description is as above. The settings on record: Salmonella enterica. The format is cell-based.
Excerpt: as §1, §2, §3

In series [5] the test system is Shigella sonnei ATCC 9290. The description is as above. The format is cell-based. The settings on record: ATCC9290.
Excerpt: as §1, §2, §3

Series [6] deals with Staphylococcus aureus ATCC 6538P. The series is described as above. The format is cell-based. To be noted: ATCC6538P.
Excerpt: as §1, §2, §3

For series [7], the system named is Gram-positive and Gram-negative bacteria. In words: Antibacterial spectrum (overall). Format: cell-based. The settings on record: in words.
Excerpt: as §1, §2, §3

The subject of series [8] is Bacillus subtilis No. 10707. In words: Antibacterial activity of the preparate (units/mg), paper disc method. Format: cell-based. Here is the method: After the completion of fermentation, the culture liquor is adjusted to pH 2.5 with concentrated sulfuric acid and is stirred for 30 minutes. Thereafter, about 7 kg of a filter aid, Radiolite No. 600 (product of Showa Kagaku Kogyo Co., Ltd.) is added to the culture liquor and the microbial cells are removed by filtration. The filtrate is adjusted to pH 7.5 by the addition of 6 N sodium hydroxide. The resulting filtrate is passed through a column packed with about 20 L. of a cation exchange resin, Amberlite IRC-50 (ammonia form). The active principles are adsorbed on the resin. After the resin is washed with water, elution of the active principles is carried out with 1 N aqueous ammonia. The eluate is subjected to determination of activity by a paper disc method using an agar plate of Bacillus subtilis No. 10707. Fractions showing activity are combined and concentrated under reduced pressure to about 1 L. The concentrate is passed through a column packed with 500 ml of an anion exchange resin, Dowex 1×2 (OH form) and then about 2 L. of water is passed through the column. In this manner, impurities are removed and the active principles are eluted with water. The active fractions are combined and concentrated under reduced pressure to about 100 ml. The concentrate is then passed through a column packed with about 50 ml of active carbon powder. The active principles are adsorbed on the active carbon. The column is washed with water. The effluent and washings are discarded. Elution is then carried out with 0.2 N sulfuric acid. The eluate is subjected to determination of activity by a paper disc method using Bacillus subtilis No. 10707. The active fractions are combined and passed through a column of an anion exchange resin, Dowex 44 (OH form) and elution of the active principles is carried out with water. The active fractions are combined and concentrated to about 60 ml. The concentrate is then freeze-dried to obtain a crude powder of Fortimicin complex. The yield of the crude powder is about 40 g.
(§4) The powder is charged over about 500 ml of silica gel in a glass column to form a uniform, thin layer. The silica gel is previously suspended in a mixed solvent of chloroform, ethanol, concentrated aqueous ammonia and acetone (2:2:1:2 by volume), and packed in the glass column to form a tight, uniform layer. The column is then thoroughly washed with the same solvent. After the crude powder is charged, the solvent having the same composition as described above is poured gradually into the column from the top and thereafter elution is carried out continuously at a flow rate of 50 ml/hour. The eluate is recovered in 20 ml fractions and the activity of each of the fractions is determined by a paper disc method using Bacillus subtilis No. 10707. First, Fortimicin KF is eluted followed by Fortimicin A and Fortimicin D. The active fractions are subjected to thin layer chromatography. The fractions containing Fortimicin KF are collected and concentrated under reduced pressure to remove the solvent.
The residue is dissolved in a small amount of water and then the solution is freeze-dried to obtain about 2 g of a purified preparate of the free base of Fortimicin KF.
as §4, with “This powder” for “The powder”, “the” for “the crude”, “10707. […]” for “10707. First, Fortimicin KF is eluted followed by Fortimicin A and Fortimicin D. The active fractions are subjected to thin layer chromatography. The fractions containing Fortimicin KF are collected and concentrated under reduced pressure to remove the solvent.”

Series [9] in a line: Solubility of the free base. Format: physicochemical. To be noted: for solubility in organic solvents / solubility in ethanol and acetone / solubility in methanol / solubility in water: free base; for solubility in organic solvents: chloroform, benzene, ethyl acetate, butyl acetate, ether, butanol, petroleum ether, n-hexane.
Setting [10] is: Example 3, before cellulose column chromatography.
The mark [11] stands for this setting: Example 3, purified preparate of the free base after cellulose column chromatography.
The mark [12] stands for this setting: purified preparate of the free base, Examples 1 and 2 (1 mg of a pure preparate defined as 1000 units).

Values after ≈ are worked out from the molar mass of the structure shown. “Also recorded” adds a separate entry of the source.

This is an account of results in patent publication US4209612A, “Fortimicin factors KF and KG and process for production thereof” (Abbott Laboratories, priority 1977, dated 1980).

As for `CNC1C(O)C(OC2OC(CN)=CCC2N)C(N)C(O)C1OC` (stereo not drawn) [Fortimicin KF], the MIC (usually the smallest concentration in the dilution series that meets the test's criterion for growth inhibition) in series [1] amounted to 4.2 µg/mL (≈ 12.6 µM); in the series on Escherichia coli ATCC 26 it was 4.2 µg/mL (≈ 12.6 µM); in [2] it was 4.2 µg/mL (≈ 12.6 µM); in series [3], 4.2 µg/mL (≈ 12.6 µM); in [4], 4.2 µg/mL (≈ 12.6 µM); in series [5], 8.4 µg/mL (≈ 25.3 µM). The MIC in series [6] amounted to 2.1 µg/mL (≈ 6.32 µM). The antibacterial activity entry was “strong antibacterial activity against a broad range of Gram-positive and Gram-negative bacteria” in series [7]; “broad antibacterial activity” in series [7] (listed as KF). Further, the activity in [8] (setting [10]) is 860 units/mg; in series [8] (setting [11]), 980 units/mg; in series [8] (Example 4), 985 units/mg; in [8] (setting [12]) it was “about 970 units/mg”. In addition, the “solubility in organic solvents” value in series [9] is “insoluble”. Besides, the “solubility in ethanol and acetone” value in [9] was “slightly soluble”. For the same compound, the solubility in methanol entry in series [9] is given as “soluble”. For the same compound, the solubility in water entry in [9] is “readily soluble; also recorded: very soluble”. Moreover, in series [9], the “solubility in the ordinary organic solvents” value was “poorly soluble”.
Take `CNC1C(O)C(OC2OC(C(C)N)=CCC2N)C(N)C(O)C1OC` (stereo not drawn) [Fortimicin KG]: the minimal inhibitory concentration (MIC) stood at 4.5 µg/mL (≈ 13 µM) in series [1]; 4.5 µg/mL (≈ 13 µM) in the series on Escherichia coli ATCC 26; 4.5 µg/mL (≈ 13 µM) in series [2]; 4.5 µg/mL (≈ 13 µM) in [3]; 2.3 µg/mL (≈ 6.64 µM) in series [4]; 9 µg/mL (≈ 26 µM) in [5]. Further, inhibition of growth in [6] (MIC) required 1.1 µg/mL (≈ 3.18 µM). The antibacterial activity entry in series [7] is “strong antibacterial activity against a broad range of Gram-positive and Gram-negative bacteria”; in series [7] (listed as KG), “broad antibacterial activity”. For the same compound, the activity in series [8] (setting [10]) is 860 units/mg; in [8] (setting [11]) it was 980 units/mg; in series [8] (Example 4) it was 985 units/mg; in [8] (setting [12]) it was “about 970 units/mg”. Besides, the “solubility in organic solvents” value in series [9] is reported as “insoluble”. Moreover, in series [9], the “solubility in ethanol and acetone” value was “slightly soluble”. For the same compound, the solubility in methanol entry in series [9] is on record as “soluble”. In addition, the solubility in water entry in series [9] is “readily soluble; also recorded: very soluble”. In [9], the “solubility in the ordinary organic solvents” value is recorded as “poorly soluble”.
